Data: PubChem BioAssay AID540258 (Broad Institute, 2011)
Active and inactive are the calls of the source.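 The calls were made as follows: active = fitted curve reaching 40% activation at or below the top valid dose tested; inconclusive = flat curve at 30 to 70% activation, or poor fit; inactive = the rest.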

Each compound was assayed on SK-MEL-5 TRPM1 promoter luciferase reporter, 24 h (assay: MITF activators via TRPM1 promoter reporter, dose response, SK-MEL-5 cells, luciferase, cherry-pick samples (AID 540258);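 also: potency for activators that raise TRPM1 promoter luciferase signal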).

Row | Structure (SMILES) | AC40
1 | N/C(=N\OC(=O)C12CC3CC(CC(C3)C1)C2)c1ccccn1 | 8.23 µM
2 | Cc1ccc(Sc2cnc3ccccc3n2)cc1 | 1.43 µM
3 | COc1ccc(-c2cc(C(=O)Nc3ccccc3F)on2)cc1 | 2.53 µM
4 | c1ccc(-c2nc(-c3nccc4ccccc34)oc2-c2ccccc2)cc1 | 3.61 µM
5 | Cc1ccc(NC(=O)c2ccccc2Cl)c(Cl)c1 | 4.2 µM
6 | O=C(Nc1ccc2oc(-c3ccccc3)nc2c1)c1cccnc1 | 5.22 µM
7 | COC(=O)c1ccc2[nH]c(C3(O)CCCCC3)c(C)c2c1 | 10.3 µM
8 | CCCN1C(=O)C(=O)N(CC(=O)c2cc(C)n(C3CC3)c2C)C1=O | 24.8 µM
9 | CN1C(=O)C2C=CC1C1C(=O)N(c3ccccc3)C(=O)C21 (stereo unspecified) | 1.89 µM
10 | CC(C)c1ccc(/C=N/NC(=O)C2CCCC2)cc1 | 2.44 µM
11 | CCCCN1C(=O)/C(=C/C=C2\SCCN2C)SC1=S | 5.57 µM
12 | COc1ccc2[nH]c(-c3ccccc3)cc2c1 | 0.977 µM
13 | Cc1ccc(NC(=O)N2CCc3ccccc3C2)cc1C | 4.47 µM
14 | COc1ccc(/C(C)=N/Nc2nncc3ccccc23)cc1 | 0.58 µM
15 | CC(C)(C)c1csc(N/N=C/c2ccc(O)cc2)n1 | 17.8 µM
16 | CN(CCC#N)C(=O)c1cc2c(s1)-c1ccccc1SC2 | 3.23 µM
17 | CC(C)c1ccc(NC(=O)Cn2ncc3ccccc32)cc1 | 6.86 µM
18 | Nc1ccc(-c2nc3ncccc3o2)c(O)c1 | 5.79 µM
19 | CCCC(=O)Nc1nc(-c2ccccc2)ns1 | 4.23 µM
20 | CN(C)c1ccc(CSc2ccccc2)cc1 | 1.83 µM
21 | CCCC(=O)c1ccc(N2CCCCCC2)c(F)c1 | 3.36 µM
22 | Cc1nc(COC(=O)c2c(C)nn(-c3ccccc3)c2C)cs1 | 21.1 µM

Row | Structure (SMILES) | AC40
23 | C/C(=N\O)c1ccc(N2C(=O)C3CC=C(Cl)CC3C2=O)cc1 (stereo unspecified) | 3.5 µM
24 | Cc1ccc(-n2nnc(-c3ccnc4ccccc34)n2)cc1 | 3.49 µM
25 | Cc1ccc(Nc2cc(C)nc(-c3ccccc3)n2)cc1 | 2.33 µM
26 | Cc1ccc(C)c(NC(=O)c2cc(-c3cc(C)ccc3O)n[nH]2)c1 | 3.03 µM
27 | CCn1cnc2cc(NCc3ccccc3Cl)ccc21 | 14.6 µM
28 | Clc1ccc(-c2nc(C3CCCCC3)no2)cc1 | 1.23 µM
29 | CCC(C)NC(=O)c1cc(-c2ccc(OC)cc2)on1 (stereo unspecified) | 0.773 µM
30 | Cc1ccc(NCC(=O)c2ccc(C)cc2)cc1 | 9.65 µM
31 | O=C1c2ccccc2NC(c2cccc(Cl)c2)N1N=C1CCCCCC1 (stereo unspecified) | > 35 µM (inactive)
32 | O=C(Nc1ccc(OC(F)F)c(Cl)c1)c1ccccn1 | 0.461 µM
33 | COc1ccc2cc(-c3csc(-c4cccnc4)n3)ccc2c1 | 2.09 µM
34 | COc1cccc(C(=O)Nc2ccc(NC(=O)C3CC3)cn2)c1 | 3.48 µM
35 | c1ccc(CSCc2cn3ccsc3n2)cc1 | 11.2 µM
36 | Cc1ccsc1CCNC(=O)C1CCC(=O)N(CCc2cccc(F)c2)C1 (stereo unspecified) | 6.83 µM
37 | Cc1cccc(NC(=O)c2onc3c2CCCC3)c1C | 1.62 µM
38 | CCC(=O)c1ccc(OCc2ccccc2)c(OC)c1 | 2.57 µM
39 | CC(=O)c1ccc(N2Cc3ccccc3C2=NC(=O)c2cccs2)cc1 | 24.6 µM
40 | CCc1ccc2[nH]c3nc(C)cc(C)c3c(=O)c2c1 | 4 µM
41 | Cc1cccc(-c2noc(Cc3ccccc3)n2)c1 | 2.93 µM
42 | Clc1ccc(-c2cn3c(n2)CCC3)cc1 | > 35 µM (inactive)
43 | O=C(CC1CCCC1)Nc1ccc(Br)cc1 | 11.6 µM
44 | Cc1ccc(NCCC(=O)c2cccs2)cc1C | 6.77 µM

Row | Structure (SMILES) | AC40
45 | c1ccn(-c2ccc(-c3ccn[nH]3)cc2)c1 | 2.31 µM
46 | CC(=O)Nc1c(-c2ccc3ccccc3c2)nc2ccccn12 | 9.16 µM
47 | COc1cccc2sc3ccc(C#CC4(O)CCCCC4)cc3c(=O)c12 | 2.94 µM
48 | COc1ccc(/C=N/Nc2ccccn2)cc1O | 3.01 µM
49 | COc1ccc(C(=O)Nc2ccc3c4c(cccc24)CC3)cc1 | 13.3 µM
50 | COC(=O)c1ccc(-c2ccc(Cl)cc2)nc1C | 0.475 µM
51 | Cc1nc(C(=O)Nc2ccccc2)sc1C(=O)Nc1ccccc1 | 3.89 µM
52 | COc1ccc(/C(N)=N/OC(=O)c2cccs2)cc1OC | 6.41 µM
53 | O=c1c2ccccc2oc2cc(NCCCn3ccnc3)ccc12 | 0.989 µM
54 | Cc1cccc(C(=O)Nc2ccn(C)n2)c1 | 24.4 µM
55 | O=C(CNc1cccc(F)c1)N1CCc2ccccc2C1 | 4.43 µM
56 | CCCCNc1c(-c2ccc(-c3cccc(Cl)c3)cc2)nc2ccccn12 | 5.54 µM
57 | Cc1ccc(CONC(=O)c2ccc(C)cc2)cc1 | 6.05 µM
58 | CC(C)Cc1cc(C(=O)Nc2ccc(Br)cc2)no1 | 1.8 µM
59 | CC(=O)c1ccc(Nc2ccc(-c3ccccc3C)nn2)cc1 | 4.2 µM
60 | O=S(=O)(Cc1cc(-c2ccccc2Cl)no1)c1ccccc1 | 9.76 µM
61 | Cc1cc(CN(C)C(=O)c2ccc3nc(Cc4ccccc4F)oc3c2)on1 | 14.1 µM
62 | O=c1oc2cc(Cl)ccc2n1CSc1nc2ccccc2s1 | 4.25 µM
63 | O=C(Nc1ccccc1)c1ccc(-c2ccccc2)s1 | 0.95 µM
64 | C/C(=N/NC(=O)c1ccncc1)c1ccc(NC(=O)c2ccc(Cl)cc2Cl)cc1 | > 35 µM (inactive)
65 | CCCN(Cc1ccc(C)cc1)C(=O)c1ccc(CNS(=O)(=O)c2ccc(C(C)=O)cc2)cc1 | > 35 µM (inactive)
66 | c1cnc2nc(-c3ccc4c(c3)OCO4)cn2c1 | 13.7 µM

Row | Structure (SMILES) | AC40
67 | Cn1c2ccccc2c(=O)c2cc(C#Cc3ccccn3)ccc21 | > 35 µM (inactive)
68 | CN(C(=O)c1cc2sccc2n1C)C1CCCCC1 | > 35 µM (inactive)
69 | O=C(Nc1ccc(NC(=O)c2ccccc2F)cc1)c1cccs1 | 4.26 µM
70 | CC(=O)c1ccc(NC(=O)Nc2ccc3c(c2)nc(C)n3C)cc1 | 31.2 µM
71 | COc1ccc(-c2ccc3ccccc3n2)cc1OC | 1.38 µM
72 | CC(=O)N(c1ccccc1)c1nnc(-c2cnc(C)cn2)s1 | 1.55 µM
73 | COc1ccc(Nc2nc(N)c3ccccc3n2)c(OC)c1 | 2.4 µM
74 | COc1ccc2cc(-c3nc4ccccc4n3C)c(=O)oc2c1 | 1.92 µM
75 | Cc1cc2cc(OCc3ccccc3)ccc2n1C | 0.737 µM
76 | O=C(NCCC1=CCCCC1)c1ccc(-n2cncn2)cc1 | 5.08 µM
77 | FC(F)(F)c1cnc(-c2cnc(-c3cccnc3)nc2)c(Cl)c1 | 3.02 µM
78 | C=CCN=C1S/C(=C\c2ccc(N(C)C)cc2)C(=O)N1CC=C | 21.5 µM
79 | COc1ccc(N=C(C)c2sc3ccccc3c2O)cc1 | 1.82 µM
80 | COc1cc(/C=C2\SC(=S)N(Nc3ccccc3)C2=O)ccc1O | 3.01 µM
81 | CCC(=O)NCCc1nc2cc(NC(=O)c3ccc(Cl)cc3)ccc2n1C | 0.755 µM
82 | O=C(Cc1ccccc1F)Nc1ccc(SC(F)F)cc1 | 1.98 µM
83 | CC(C)(C)c1ccc(-c2noc(-c3ccno3)n2)cc1 | 0.472 µM
84 | Cc1cccc(-c2cc(N)n(-c3ccccc3)n2)c1 | 0.712 µM
85 | CC1CCN(C(=O)c2cc(-c3ccccc3O)on2)CC1 | 0.383 µM
86 | c1csc(-c2noc(COc3ccc4c(c3)CCCC4)n2)c1 | 2.14 µM
87 | COC(=O)C1CCCCN1C(=O)c1ccc2oc(Cc3ccccc3)nc2c1 (stereo unspecified) | 3.18 µM
88 | Nc1nc2ccccc2cc1-c1cccs1 | 6.26 µM

Row | Structure (SMILES) | AC40
89 | COc1ccc(NC(=O)n2ncc3cc(Cl)ccc32)cc1OC | 5.31 µM
90 | CC1(C)CNC(=O)c2sc(NC(=O)c3ccccc3)nc2C1 | 21.9 µM
91 | O=C(NC1=NCCS1)c1ccc(Cl)s1 | 2.64 µM
92 | COc1ccc(OCc2cc(C(=O)NC(C)c3cnn(C)c3)no2)c(Cl)c1 (stereo unspecified) | 12.3 µM
93 | Cc1cc(C(=O)CN2C(=O)NC3(CCCCC3C)C2=O)c(C)n1Cc1cccs1 (stereo unspecified) | 8.17 µM
94 | CCC(C)c1ccc(NC(=O)Nc2cccnc2)cc1 (stereo unspecified) | 2.21 µM
95 | CC(=O)N/C(N)=N/c1nc(=O)c2ccccc2s1 | 5.92 µM
96 | Nc1ccc(C#Cc2ccc3c(=O)c4ccccc4oc3c2)cc1 | 4.44 µM
97 | Cc1ccc2c(Cl)c(C(=O)Nc3cccnc3)sc2c1 | 1.19 µM
98 | CC(=O)Nc1ccc2c(c1)ncn2-c1ccccc1 | 2.76 µM
99 | CC(C)(C)c1ccc(C(=O)Nc2ccc(F)cc2)s1 | 0.374 µM
100 | CCN(CC)C(=O)CCc1nnc(Cc2cccc(C(F)(F)F)c2)o1 | 1.95 µM
101 | CN(c1ccc(O)cc1)c1nc(O)c(C2=c3ccccc3=NC2=O)s1 | 8.06 µM
102 | Cc1ccc(C(=O)Cn2nnc3ccccc32)cc1C | 0.858 µM
103 | Cc1nc(NC(C)C)c2cnn(CCc3ccccc3)c2n1 | 7.11 µM
104 | CSc1nc2ccc(NC(=O)c3cccs3)cc2s1 | 2.16 µM
105 | Oc1nc(Nc2ccccc2)sc1/C=C1\C=Nc2ccccc21 | 9.81 µM
106 | O=C(c1noc2c1CCCC2)N1CCc2ccccc2C1 | 5.97 µM
107 | CN(C)C(CNC(=O)c1cc2ccccc2oc1=O)c1ccccc1 (stereo unspecified) | 5.72 µM
108 | CCN(CC)C(=O)c1cc2sc3ccccc3c2s1 | 2.42 µM
109 | CCn1c(C)nc2cc(C(=O)N/N=C(\C)c3ccccc3O)ccc21 | 3.48 µM
110 | C/C(=N\OCc1ccc(C#N)cc1)c1ccc(S(=O)(=O)N(C)C)cc1 | > 35 µM (inactive)

Row | Structure (SMILES) | AC40
111 | CC(C)(C)c1ccc(-c2cc(C(=O)NNC(=O)Nc3ccccc3)c3ccccc3n2)cc1 | 3.33 µM
112 | COc1ccc(NC(=O)C2Cc3ccccc3O/C2=N\O)cc1 (stereo unspecified) | 17 µM
113 | CCCCn1cnc2sc(-c3ccccc3)cc2c1=O | 0.812 µM
114 | CC(NS(=O)(=O)c1cccc(Cl)c1)C(=O)Nc1ccc(-c2nc3ccccc3s2)cc1 (stereo unspecified) | 6.96 µM
115 | O=C(N/N=C/c1ccsc1)c1ccc2c(c1)OCO2 | 3.33 µM
116 | Cc1nc(SCc2ccccc2)nc2c1CCC2 | 2.58 µM
117 | CC(=O)Nc1nnc(COc2ccc(Cl)cc2)s1 | 3.16 µM
118 | Clc1ccc(-n2nnc(-c3cccnc3Cl)n2)cn1 | 3.3 µM
119 | CC1CCc2sc(C(=O)Nc3ccc(C(N)=O)cc3)cc2C1 (stereo unspecified) | 15.4 µM
120 | Cc1ccc(C(=O)Oc2cccc(-n3cnnn3)c2)cc1 | 4.7 µM
121 | N#Cc1cc(C#N)c(N2CCN(c3ccccn3)CC2)nc1N | 4.47 µM
122 | COc1cc(SC)ccc1C(=O)NCC1CCCCC1 | 14.4 µM
123 | Cc1cc(NC(=O)Nc2ccc3c(ccn3C)c2)sn1 | 7.89 µM
124 | O=c1c(-c2nc3ccccc3s2)cccn1Cc1ccccc1 | 0.945 µM
125 | C/C(=N/OC(=O)CC(C)C)c1cc(-c2ccc(Cl)cc2)no1 | 2.65 µM
126 | COC(=O)C(Cc1ccc(O)cc1)N1Cc2ccccc2C1=O (stereo unspecified) | 5.9 µM
127 | COC(=O)Cc1ccc(OCc2ccc(Cl)nc2)cc1 | 4.13 µM
128 | Cc1nc(N)sc1N=Nc1ccc(F)cc1 | 6.62 µM
129 | CCCc1cc(C(=O)Nc2ccc(C(=O)OC)cc2)cs1 | 16.2 µM
130 | Cc1cccc(-c2nc(C#N)c(NC3CCCCC3)o2)c1 | 1.29 µM
131 | Nc1ccccc1C#Cc1ccccc1 | 0.777 µM
